Test results reported in patent publication US20060069132A1, “Azolecarboxamide herbicides” (priority 2004, published 2006).

Tests used:
bermudagrass = test: Test C pre-/postemergence herbicide test; assay type: in vivo, Cynodon dactylon; conditions: for Plant response rating, Bermudagrass: visual, 12 to 14 days
Excerpt: (§1) Seeds of plant species selected from bermudagrass (Cynodon dactylon (L.) Pers.), Surinam grass (Urochloa decumbens (Staph) R. D. Webster, previously named Brachiaria decumbens Stapf), cocklebur (Xanthium strumarium L.), corn (Zea mays L.), large crabgrass (Digitaria sanguinalis (L.) Scop.), woolly cupgrass (Eriochloa villosa (Thunb.) Kunth), giant foxtail (Setaria faberi Herrm.), goosegrass (Eleusine indica (L.) Gaertn.), johnsongrass (Sorghum halepense (L.) Pers.), kochia (Kochia scoparia (L.) Schrad.), lambsquarters (Chenopodium album L.), morningglory (Ipomoea coccinea L.), eastern black nightshade (Solanum ptycanthum Dunal), yellow nutsedge (Cyperus esculentus L.), pigweed (Amaranthus retroflexus L.), common ragweed (Ambrosia elatior L.), soybean (Glycine max (L.) Merr.), common (oilseed) sunflower (Helianthus annuus L.) and velvetleaf (Abutilon theophrasti Medik.) were planted and treated preemergence with test chemicals formulated in a non-phytotoxic solvent mixture which included a surfactant.
(§2) At the same time, plants selected from these crop and weed species and also winter barley (Hordeum vulgare L.), blackgrass (Alopecurus myosuroides Huds.), canarygrass (Phalaris minor Retz.), chickweed (Stellaria media (L.) Vill.), downy bromegrass (Bromus tectorum L.), green foxtail (Setaria viridis (L.) Beauv.), Italian ryegrass (Lolium multiflorum Lam.), wheat (Triticum aestivum L.), wild oat (Avenafatua L.) and windgrass (Apera spica-venti (L.) Beauv.) were treated with postemergence applications of some of the test chemicals formulated in the same manner. Plants ranged in height from 2 to 18 cm (1- to 4-leaf stage) for postemergence treatments. Plant species in the flooded paddy test consisted of rice (Oryza sativa), smallflower umbrella sedge (Cyperus difformis L.), ducksalad (Heteranthera limosa (Sw.) Willd.) and barnyardgrass (Echinochloa crus-galli (L.) Beauv.) grown to the 2-leaf stage for testing. Treated plants and controls were maintained in a greenhouse for 12 to 14 days, after which time all species were compared to controls and visually evaluated. Plant response ratings, summarized in Table C, are based on a scale of 0 to 100 where 0 is no effect and 100 is complete control. A dash (-) response means no test result.

Surinam grass = test: Test C pre-/postemergence herbicide test; assay type: in vivo, Urochloa decumbens; conditions: for Plant response rating, Surinam Grass: visual, 12 to 14 days
Excerpt: as §1, §2

corn = test: Test C pre-/postemergence herbicide test; assay type: in vivo, Zea mays; conditions: for Plant response rating, Corn: visual, 12 to 14 days
Excerpt: as §1, §2

goosegrass = test: Test C pre-/postemergence herbicide test; assay type: in vivo, Eleusine indica; conditions: for Plant response rating, Goosegrass: visual, 12 to 14 days
Excerpt: as §1, §2

johnsongrass = test: Test C pre-/postemergence herbicide test; assay type: in vivo, Sorghum halepense; conditions: for Plant response rating, Johnsongrass: visual, 12 to 14 days
Excerpt: as §1, §2

morningglory [1] = test: Test C pre-/postemergence herbicide test; assay type: in vivo, Ipomoea coccinea; design: key to Plant response rating, Morningglory: 0 = no effect, 100 = complete control; conditions: for Plant response rating, Morningglory: visual, 12 to 14 days
Excerpt: as §1, §2

common ragweed = test: Test C pre-/postemergence herbicide test; assay type: in vivo, Ambrosia elatior; design: key to Plant response rating, Ragweed: 0 = no effect, 100 = complete control; conditions: for Plant response rating, Ragweed: visual, 12 to 14 days
Excerpt: as §1, §2

velvetleaf = test: Test C pre-/postemergence herbicide test; assay type: in vivo, Abutilon theophrasti; conditions: for Plant response rating, Velvetleaf: visual, 12 to 14 days
Excerpt: as §1, §2

large crabgrass = test: Test A pre-/postemergence herbicide test; assay type: in vivo, Digitaria sanguinalis
Procedure, shortened: (§3)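 Seeds sown in sandy loam received a preemergence directed soil spray of compound in non-phytotoxic solvent with surfactant; postemergence plants (2–10 cm, one- to two-leaf stage) were sprayed to runoff at the same time. After ~10 days in greenhouse, injury was rated visually versus untreated controls (0 = no effect, 100 = complete control).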

giant foxtail = test: Test A pre-/postemergence herbicide test; assay type: in vivo, Setaria faberi
Procedure, shortened: as §3

morningglory [2] = test: Test A pre-/postemergence herbicide test; assay type: in vivo, Ipomoea spp.
Procedure, shortened: as §3

ducksalad = test: Test C flooded paddy test; assay type: in vivo, Heteranthera limosa
barnyardgrass = test: Test C flooded paddy test; assay type: in vivo, Echinochloa crus-galli
Procedure, shortened: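 Postemergence sprays applied to plants 2 to 18 cm tall (1- to 4-leaf stage); paddy species grown to 2-leaf stage under flooding. After 12 to 14 days in greenhouse, visual rating versus untreated controls on 0–100 scale (0 no effect, 100 complete control).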

[3] = 125 g ai/ha, scale 0 (no effect) to 100 (complete control), preemergence
[4] = 250 g ai/ha, scale 0 to 100 (0 no effect, 100 complete control), preemergence
[5] = Preemergence, 500 g ai/ha, scale 0 to 100, 0 no effect, 100 complete control
[6] = Postemergence, 500 g ai/ha, 0 to 100 scale, 0 no effect, 100 complete control
[7] = Postemergence, 2000 g ai/ha, 0 to 100 scale, 0 no effect, 100 complete control
[8] = Preemergence, 2000 g ai/ha, visual rating, 0 to 100 scale (0 no effect, 100 complete control)
[9] = preemergence, 500 g ai/ha, visual injury, 0 to 100 scale (0 no effect, 100 complete control)
[10] = 125 g ai/ha, scale 0 to 100 (0 no effect, 100 complete control)
[11] = 250 g ai/ha, scale of 0 to 100, 0 is no effect, 100 is complete control
[12] = 500 g ai/ha, visual rating after 12 to 14 days, scale 0 to 100 (0 no effect, 100 complete control)

## CCCn1nc(C(C)(C)C)cc1C(=O)Nc1cccc(C(=O)NCC)c1 [Compound 57]
bermudagrass; 62 g ai/ha, preemergence
  Plant response rating (0 = no effect, 100 = complete control), Bermudagrass: 55
bermudagrass; [3]
  Plant response rating, Bermudagrass: 95
bermudagrass; [4]
  Plant response rating, Bermudagrass: 95
bermudagrass; [5]
  Bermudagrass plant response rating: 100
Surinam grass; 62 g ai/ha, preemergence
  Plant response rating (0 = no effect, 100 = complete control), Surinam Grass: 0
Surinam grass; [3]
  Plant response rating, Surinam Grass: 15
Surinam grass; [4]
  Plant response rating, Surinam Grass: 35
Surinam grass; [5]
  Surinam Grass plant response rating: 75
corn; 62 g ai/ha, preemergence
  Plant response rating (0 = no effect, 100 = complete control), Corn: 0
corn; [3]
  Plant response rating, Corn: 0
corn; [4]
  Plant response rating, Corn: 0
corn; [5]
  Corn plant response rating: 0
goosegrass; 62 g ai/ha, preemergence
  Plant response rating (0 = no effect, 100 = complete control), Goosegrass: 45
goosegrass; [3]
  Plant response rating, Goosegrass: 75
goosegrass; [4]
  Plant response rating, Goosegrass: 90
goosegrass; [5]
  Goosegrass plant response rating: 90
johnsongrass; 62 g ai/ha, preemergence
  Plant response rating (0 = no effect, 100 = complete control), Johnsongrass: 20
johnsongrass; [3]
  Plant response rating, Johnsongrass: 65
johnsongrass; [4]
  Plant response rating, Johnsongrass: 80
johnsongrass; [5]
  Johnsongrass plant response rating: 85
Morningglory [1]; 62 g ai/ha, preemergence
  Plant response rating (0 = no effect, 100 = complete control), Morningglory: 0
Morningglory [1]; [3]
  Plant response rating, Morningglory: 0
Morningglory [1]; [4]
  Plant response rating, Morningglory: 25
Morningglory [1]; [5]
  Morningglory plant response rating: 25
Common ragweed; 62 g ai/ha, preemergence
  Plant response rating (0 = no effect, 100 = complete control), Ragweed: 65
Common ragweed; [3]
  Plant response rating, Ragweed: 100
Common ragweed; [4]
  Plant response rating, Ragweed: 100
Common ragweed; [5]
  Ragweed plant response rating: 100
velvetleaf; 62 g ai/ha, preemergence
  Plant response rating (0 = no effect, 100 = complete control), Velvetleaf: 0
velvetleaf; [3]
  Plant response rating, Velvetleaf: 0
velvetleaf; [4]
  Plant response rating, Velvetleaf: 100
velvetleaf; [5]
  Velvetleaf plant response rating: 100

## CCn1nc(C(C)(C)C)cc1C(=O)Nc1cccc(C(=O)N2CC=CC2)c1 [Compound 286]
Large crabgrass; [6]
  Crabgrass, Large plant response rating: 20
Large crabgrass; [7]
  Plant response rating, Crabgrass, Large: 25
Large crabgrass; [8]
  Crabgrass, Large plant response rating: 70
Large crabgrass; [9]
  Crabgrass, Large plant response rating: 15
Giant foxtail; [6]
  Foxtail, Giant plant response rating: 35
Giant foxtail; [7]
  Plant response rating, Foxtail, Giant: 75
Giant foxtail; [8]
  Foxtail, Giant plant response rating: 100
Giant foxtail; [9]
  Foxtail, Giant plant response rating: 60
Morningglory [2]; [6]
  Morningglory plant response rating: 20
Morningglory [2]; [7]
  Plant response rating, Morningglory: 35
Morningglory [2]; [8]
  Morningglory plant response rating: 40
Morningglory [2]; [9]
  Morningglory plant response rating: 30
ducksalad; 62 g ai/ha, scale 0 to 100
  Ducksalad plant response rating: 50
ducksalad; [10]
  Ducksalad plant response rating: 75
ducksalad; [11]
  Ducksalad plant response rating: 90
ducksalad; [12]
  Plant response rating, Ducksalad: 90
barnyardgrass; 62 g ai/ha, scale 0 to 100 (0 no effect, 100 complete control)
  Barnyardgrass plant response rating: 40
barnyardgrass; [10]
  Barnyardgrass plant response rating: 55
barnyardgrass; [11]
  Barnyardgrass plant response rating: 70
barnyardgrass; [12]
  Plant response rating, Barnyardgrass: 80
